Data: ChEMBL document CHEMBL3734705, “Synthesis and in vitro cytotoxicity of novel C-12 substituted-14-deoxy-andrographolide derivatives as potent anti-cancer agents” (2015)

Legend:
[1] = Cytotoxicity against human HOP92 cells assessed as growth level at 10 uM after 48 hrs by SRB assay; assay type: functional, HOP-92
[2] = tested on: EKVX; experiment: Cytotoxicity against human EKVX cells assessed as growth level at 10 uM after 48 hrs by SRB assay; assay type: functional
[3] = tested on: NCI-H322M; experiment: Cytotoxicity against human NCI-H322M cells assessed as growth level at 10 uM after 48 hrs by SRB assay; assay type: functional
[4] = tested on: SR; experiment: Cytotoxicity against human SR cells assessed as growth level at 10 uM after 48 hrs by SRB assay; assay type: functional
[5] = Cytotoxicity against human HL-60(TB) cells assessed as growth inhibition at 10 uM after 48 hrs by SRB assay; assay type: functional; settings: HL-60, 48 h, read-out: GI
[6] = Cytotoxicity against human DU145 cells assessed as growth inhibition at 10 uM after 48 hrs by SRB assay; assay type: functional; settings: DU-145, 48 h, read-out: GI
[7] = Cytotoxicity against human HOP92 cells assessed as growth inhibition at 10 uM after 48 hrs by SRB assay; assay type: functional; settings: HOP-92, 48 h, read-out: GI
[8] = Cytotoxicity against human HOP62 cells assessed as growth level at 10 uM after 48 hrs by SRB assay; assay type: functional, HOP-62
[9] = Cytotoxicity against human SF268 cells assessed as growth inhibition at 10 uM after 48 hrs by SRB assay; assay type: functional; settings: SF-268, 48 h, read-out: GI
[10] = tested on: SN12C; experiment: Cytotoxicity against human SN12C cells assessed as growth inhibition at 10 uM after 48 hrs by SRB assay; assay type: functional; settings: read-out: GI
[11] = tested on: HT-29; experiment: Cytotoxicity against human HT-29 cells assessed as growth level at 10 uM after 48 hrs by SRB assay; assay type: functional
[12] = Cytotoxicity against human HOP62 cells assessed as growth inhibition at 10 uM after 48 hrs by SRB assay; assay type: functional; settings: HOP-62, 48 h, read-out: GI
[13] = tested on: MDA-MB-231; experiment: Cytotoxicity against human MDA-MB-231 cells assessed as growth inhibition at 10 uM after 48 hrs by SRB assay; assay type: functional; settings: MDA-MB-231, 48 h, read-out: GI
[14] = Cytotoxicity against human UO31 cells assessed as growth inhibition at 10 uM after 48 hrs by SRB assay; assay type: functional; settings: UO-31, 48 h, read-out: GI
[15] = tested on: SK-MEL-5; experiment: Cytotoxicity against human SK-MEL-5 cells assessed as growth level at 10 uM after 48 hrs by SRB assay; assay type: functional
[16] = tested on: KM12; experiment: Cytotoxicity against human KM12 cells assessed as growth level at 10 uM after 48 hrs by SRB assay; assay type: functional
[17] = Cytotoxicity against human SNB19 cells assessed as growth level at 10 uM after 48 hrs by SRB assay; assay type: functional, SNB-19
[18] = Cytotoxicity against human Hs578T cells assessed as growth level at 10 uM after 48 hrs by SRB assay; assay type: functional, Hs-578T
[19] = Cytotoxicity against human OVCAR4 cells assessed as growth inhibition at 10 uM after 48 hrs by SRB assay; assay type: functional; settings: OVCAR-4, 48 h, read-out: GI
[20] = Cytotoxicity against human Hs578T cells assessed as growth inhibition at 10 uM after 48 hrs by SRB assay; assay type: functional; settings: Hs-578T, read-out: GI
[21] = tested on: MDA-MB-231; experiment: Cytotoxicity against human MDA-MB-231 cells assessed as growth level at 10 uM after 48 hrs by SRB assay; assay type: functional
[22] = Cytotoxicity against human MOLT4 cells assessed as growth level at 10 uM after 48 hrs by SRB assay; assay type: functional, MOLT-4
[23] = Cytotoxicity against human HCC2998 cells assessed as growth level at 10 uM after 48 hrs by SRB assay; assay type: functional, HCC 2998
[24] = Cytotoxicity against human NCI-ADR-RES cells assessed as growth inhibition at 10 uM after 48 hrs by SRB assay; assay type: functional; settings: read-out: GI
[25] = tested on: ACHN; experiment: Cytotoxicity against human ACHN cells assessed as growth level at 10 uM after 48 hrs by SRB assay; assay type: functional
[26] = tested on: NCI-H460; experiment: Cytotoxicity against human NCI-H460 cells assessed as growth inhibition at 10 uM after 48 hrs by SRB assay; assay type: functional; settings: NCI-H460, 48 h, read-out: GI
[27] = Cytotoxicity against human Caki1 cells assessed as growth inhibition at 10 uM after 48 hrs by SRB assay; assay type: functional; settings: CAKI-1, 48 h, read-out: GI
[28] = tested on: A549; experiment: Cytotoxicity against human A549 cells assessed as growth inhibition at 10 uM after 48 hrs by SRB assay; assay type: functional; settings: A549, 48 h, read-out: GI
[29] = tested on: EKVX; experiment: Cytotoxicity against human EKVX cells assessed as growth inhibition at 10 uM after 48 hrs by SRB assay; assay type: functional; settings: read-out: GI
[30] = tested on: T47D; experiment: Cytotoxicity against human T47D cells assessed as growth inhibition at 10 uM after 48 hrs by SRB assay; assay type: functional; settings: read-out: GI
[31] = tested on: SK-MEL-5; experiment: Cytotoxicity against human SK-MEL-5 cells assessed as growth inhibition at 10 uM after 48 hrs by SRB assay; assay type: functional; settings: SK-MEL-5, 48 h, read-out: GI
[32] = Cytotoxicity against human SNB75 cells assessed as growth inhibition at 10 uM after 48 hrs by SRB assay; assay type: functional; settings: SNB-75, 48 h, read-out: GI
[33] = Cytotoxicity against human OVCAR3 cells assessed as growth inhibition at 10 uM after 48 hrs by SRB assay; assay type: functional; settings: OVCAR-3, 48 h, read-out: GI
[34] = tested on: NCI-H23; experiment: Cytotoxicity against human NCI-H23 cells assessed as growth inhibition at 10 uM after 48 hrs by SRB assay; assay type: functional; settings: NCI-H23, 48 h, read-out: GI
[35] = Cytotoxicity against human Caki1 cells assessed as growth level at 10 uM after 48 hrs by SRB assay; assay type: functional, CAKI-1
[36] = tested on: SR; experiment: Cytotoxicity against human SR cells assessed as growth inhibition at 10 uM after 48 hrs by SRB assay; assay type: functional; settings: read-out: GI
[37] = tested on: HT-29; experiment: Cytotoxicity against human HT-29 cells assessed as growth inhibition at 10 uM after 48 hrs by SRB assay; assay type: functional; settings: HT-29, 48 h, read-out: GI
[38] = Cytotoxicity against human PC3 cells assessed as growth level at 10 uM after 48 hrs by SRB assay; assay type: functional, PC-3
[39] = Cytotoxicity against human UO31 cells assessed as growth level at 10 uM after 48 hrs by SRB assay; assay type: functional, UO-31
[40] = tested on: T47D; experiment: Cytotoxicity against human T47D cells assessed as growth level at 10 uM after 48 hrs by SRB assay; assay type: functional
[41] = tested on: A549; experiment: Cytotoxicity against human A549 cells assessed as growth level at 10 uM after 48 hrs by SRB assay; assay type: functional
[42] = Cytotoxicity against human OVCAR8 cells assessed as growth level at 10 uM after 48 hrs by SRB assay; assay type: functional, OVCAR-8
[43] = Cytotoxicity against human SKOV3 cells assessed as growth inhibition at 10 uM after 48 hrs by SRB assay; assay type: functional; settings: SK-OV-3, 48 h, read-out: GI
[44] = Cytotoxicity against human COLO205 cells assessed as growth level at 10 uM after 48 hrs by SRB assay; assay type: functional, COLO 205
[45] = Cytotoxicity against human SF539 cells assessed as growth inhibition at 10 uM after 48 hrs by SRB assay; assay type: functional; settings: SF-539, 48 h, read-out: GI

## C=C1CC[C@@H]2[C@](C)(COC(C)=O)[C@H](OC(C)=O)CC[C@@]2(C)[C@@H]1CC(NCCCCCCCC)C1=CCOC1=O (mixture of isomers)
[1]
  Activity: 44.59%
[2]
  Activity: 75.77%
[3]
  Activity: 98.01%
[4]
  Activity: 36.8%
[5]
  inhibition of growth at 10 µM: 41.1%
[6]
  inhibition of growth at 10 µM: 11.3%
[7]
  inhibition of growth at 10 µM: 55.4%
[8]
  Activity: 91.97%
[9]
  inhibition of growth at 10 µM: 32.2%
[10]
  inhibition of growth at 10 µM: 26.9%
[11]
  Activity: 70.47%
[12]
  inhibition of growth at 10 µM: 8.03%
[13]
  inhibition of growth at 10 µM: 29.2%
[14]
  inhibition of growth at 10 µM: 43.9%
[15]
  Activity: 50.57%
[16]
  Activity: 68.58%
[17]
  Activity: 78.29%
[18]
  Activity: 83.08%
[19]
  inhibition of growth at 10 µM: 47.7%
[20]
  inhibition of growth at 10 µM: 16.9%
[21]
  Activity: 70.83%
[22]
  Activity: 36.47%
[23]
  Activity: 91.44%
[24]
  inhibition of growth at 10 µM: 12.3%
[25]
  Activity: 85.98%
[26]
  inhibition of growth at 10 µM: 47.3%
[27]
  inhibition of growth at 10 µM: 31.3%
[28]
  inhibition of growth at 10 µM: 32.8%
[29]
  inhibition of growth at 10 µM: 24.3%
[30]
  inhibition of growth at 10 µM: 42%
[31]
  inhibition of growth at 10 µM: 49.4%
[32]
  inhibition of growth at 10 µM: 25.4%
[33]
  inhibition of growth at 10 µM: 51%
[34]
  inhibition of growth at 10 µM: 29.2%
[35]
  Activity: 68.67%
[36]
  inhibition of growth at 10 µM: 63%
[37]
  inhibition of growth at 10 µM: 29.5%
[38]
  Activity: 33.69%
[39]
  Activity: 56.13%
[40]
  Activity: 57.98%
[41]
  Activity: 67.24%
[42]
  Activity: 70.96%
[43]
  inhibition of growth at 10 µM: 22.9%
[44]
  Activity: 70.75%
[45]
  inhibition of growth at 10 µM: 10.8%

## C=C1CC[C@@H]2[C@](C)(COC(C)=O)[C@H](OC(C)=O)CC[C@@]2(C)[C@@H]1CC(NC1CCCC1)C1=CCOC1=O (some centres undefined)
[1]
  Activity: 25.23%
[2]
  Activity: 52.44%
[3]
  Activity: 101.16%
[4]
  Activity: 19.62%
[5]
  inhibition of growth at 10 µM: 57.3%
[6]
  inhibition of growth at 10 µM: 8.04%
[7]
  inhibition of growth at 10 µM: 74.8%
[8]
  Activity: 94.41%
[9]
  inhibition of growth at 10 µM: 23.3%
[10]
  inhibition of growth at 10 µM: 21.5%
[11]
  Activity: 75.54%
[12]
  inhibition of growth at 10 µM: 5.59%
[13]
  inhibition of growth at 10 µM: 19.6%
[14]
  inhibition of growth at 10 µM: 43.9%
[15]
  Activity: 34.29%
[16]
  Activity: 74.46%
[18]
  Activity: 74.91%
[19]
  inhibition of growth at 10 µM: 41.6%
[20]
  inhibition of growth at 10 µM: 25.1%
[21]
  Activity: 80.39%
[22]
  Activity: 42.41%
[23]
  Activity: 90.35%
[24]
  inhibition of growth at 10 µM: 31.5%
[25]
  Activity: 78.47%
[26]
  inhibition of growth at 10 µM: 25.2%
[27]
  inhibition of growth at 10 µM: 39.3%
[28]
  inhibition of growth at 10 µM: 26.4%
[29]
  inhibition of growth at 10 µM: 47.6%
[30]
  inhibition of growth at 10 µM: 49.1%
[31]
  inhibition of growth at 10 µM: 65.7%
[32]
  inhibition of growth at 10 µM: 32%
[33]
  inhibition of growth at 10 µM: 31%
[34]
  inhibition of growth at 10 µM: 37.5%
[35]
  Activity: 60.7%
[36]
  inhibition of growth at 10 µM: 80.4%
[37]
  inhibition of growth at 10 µM: 24.5%
[38]
  Activity: 44.7%
[39]
  Activity: 56.08%
[40]
  Activity: 50.85%
[41]
  Activity: 73.55%
[42]
  Activity: 53.68%
[43]
  inhibition of growth at 10 µM: 12.1%
[44]
  Activity: 75.23%
[45]
  inhibition of growth at 10 µM: 10.6%
